Data published in patent publication US6852863B2, “Metabolites of (3-{[4-tert-butyl-benzyl)-(pyridine-3-sulfonyl)-amino]-methyl}-phenoxy)-acetic acid” (Pfizer Inc., priority 2002, dated 2005).

Molecular target: T1, rat EP2 prostaglandin E2 receptor (Rattus norvegicus, UniProt Q62928)
T1 construct: This full length receptor is used to prepare 293S cells expressing the EP2 receptor; expressed in transfected cells; membranes used in the assay
Assay: Rat EP2 receptor binding assay (displacement of 3H-prostaglandin E2)
Details: 293S cell membranes expressing rat EP2, 3 nM 3H-prostaglandin E2, 1 hour at 25° C.
Source text: Rat EP2 Recptor Binding Assay
Assay for Binding to Prostaglandin E2 Receptors
The full length EP2 receptor is made as disclosed in Nemoto et al., Prostaglandins and other Lipid Mediators, 1997, 54, 713-725. This full length receptor is used to prepare 293S cells expressing the EP2 receptor.
293S cells expressing the rat EP2 prostaglandin E2 receptor are generated according to methods known to those skilled in the art. Typically, PCR (polymerase chain reaction) primers corresponding to the 5′ and 3′ ends of the published full length receptor are made according to the well known methods disclosed above and are used in an RT-PCR reaction using the total RNA from rat kidney as a source. […]
Membrane Preparation: All operations are performed at 4° C. […] Pelleted membranes are resuspended to 3-10 mg protein per ml, protein concentration being determined of the method of Bradford [Bradford, M., Anal. Biochem., 72, 248 (1976)]. […]
Binding Assay: Frozen membranes prepared as above are thawed and diluted to 1 mg protein per ml in Buffer A above. […] To determine the amount of ^3H-prostaglandin bound to the membranes, the dried filters are placed into plastic bags with scintillation fluid and counted in a LKB 1205 Betaplate reader (Wallac, Gaithersburg, Md.). […]

T1 sequence (Q62928 whole entry): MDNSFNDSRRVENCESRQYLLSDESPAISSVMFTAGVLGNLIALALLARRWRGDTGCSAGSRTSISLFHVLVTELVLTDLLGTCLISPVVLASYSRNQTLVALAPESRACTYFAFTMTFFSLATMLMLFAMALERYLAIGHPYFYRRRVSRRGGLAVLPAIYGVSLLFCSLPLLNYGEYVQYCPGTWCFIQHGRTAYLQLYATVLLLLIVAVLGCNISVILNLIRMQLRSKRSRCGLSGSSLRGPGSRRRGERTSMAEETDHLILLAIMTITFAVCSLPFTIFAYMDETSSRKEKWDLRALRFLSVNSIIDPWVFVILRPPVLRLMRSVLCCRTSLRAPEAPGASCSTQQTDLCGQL

SMILES: CC(C)(CO)c1ccc(CN(Cc2cccc(OCC(=O)O)c2)S(=O)(=O)c2cccnc2)cc1 [Metabolite M4, (3-{[[4-(2-hydroxy-1,1-dimethyl-ethyl)-benzyl]-(pyridine-3-sulfonyl)-amino]-methyl}-phenoxy)-acetic acid]
- IC50: 0.17 µM
